pKi: −log10 of the molar value.

The target of one test is T1, human GlyT1c transporter (Homo sapiens, UniProt P48067).
T1 construct: expressed in transfected cells; host or cells: CHO cells (recombinant; line hGlyT1c_5_CHO is named for the uptake assay)
T1 sequence (P48067 1-706): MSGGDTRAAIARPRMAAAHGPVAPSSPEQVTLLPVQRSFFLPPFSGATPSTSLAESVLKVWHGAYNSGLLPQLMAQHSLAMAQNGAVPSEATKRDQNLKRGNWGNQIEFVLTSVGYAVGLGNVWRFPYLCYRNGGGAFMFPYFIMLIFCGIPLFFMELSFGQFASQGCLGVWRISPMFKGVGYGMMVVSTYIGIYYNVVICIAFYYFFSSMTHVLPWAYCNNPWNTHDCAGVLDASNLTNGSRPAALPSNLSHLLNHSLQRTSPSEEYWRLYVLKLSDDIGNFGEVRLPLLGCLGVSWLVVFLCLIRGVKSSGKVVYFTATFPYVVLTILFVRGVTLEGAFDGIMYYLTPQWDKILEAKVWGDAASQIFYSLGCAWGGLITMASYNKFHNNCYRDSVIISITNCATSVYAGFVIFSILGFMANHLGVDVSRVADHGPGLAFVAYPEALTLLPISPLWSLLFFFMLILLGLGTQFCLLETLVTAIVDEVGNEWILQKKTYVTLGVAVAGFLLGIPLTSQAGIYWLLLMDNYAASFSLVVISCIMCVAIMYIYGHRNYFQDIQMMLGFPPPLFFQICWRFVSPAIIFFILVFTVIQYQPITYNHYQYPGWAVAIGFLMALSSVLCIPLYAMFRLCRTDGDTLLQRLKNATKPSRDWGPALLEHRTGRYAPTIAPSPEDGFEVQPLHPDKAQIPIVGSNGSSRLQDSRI
The test can be described thus: Radioligand binding assay using recombinant CHO cell membranes expressing human GlyT1. To be noted: radioligand binding to human GlyT1c transporter-expressing membranes. The source says: 2. Radioligand binding assays using recombinant CHO cell membranes expressing human GlyT1: […]
Take `Cn1cnc(S(=O)(=O)N2C[C@H](Nc3cc(OC4CCCCC4)ncn3)[C@@H](c3ccc(F)cc3)C2)c1` [Example 721, 6-(cyclohexyloxy)-N-{(3R,4S)-4-(4-fluorophenyl)-1-[(1-methyl-1H-imidazol-4-yl)sulfonyl]pyrrolidin-3-yl}pyrimidin-4-amine]: the pKi is ≥ 7.00. For `Cn1cnc(S(=O)(=O)N2C[C@@H](NC(=O)c3cccc(C(F)(F)F)c3Cl)[C@H](c3ccc(Cl)cc3)C2)c1` (relative stereo) [Example 13, 2-chloro-N-{trans-4-(4-chlorophenyl)-1-[(1-methyl-1H-imidazol-4-yl)sulfonyl]pyrrolidin-3-yl}-3-(trifluoromethyl)benzamide], the pKi was ≥ 6.00. Take `Cn1cnc(S(=O)(=O)N2C[C@@H](CNc3cccc(C(N)=O)c3)[C@H](c3ccc(F)cc3)C2)c1` (relative stereo) [Example 364, 3-[({Trans-4-(4-fluorophenyl)-1-[(1-methyl-1H-imidazol-4-yl)sulfonyl]pyrrolidin-3-yl}methyl)amino]benzamide]: the pKi is ≥ 5.00. Still for that read-out and setting: in the case of `Cn1cnc(S(=O)(=O)N2C[C@H](NCc3sccc3Cl)[C@@H](c3ccccc3)C2)c1` [Example 553, (3R,4S)-N-[(3-chlorothiophen-2-yl)methyl]-1-[(1-methyl-1H-imidazol-4-yl)sulfonyl]-4-phenylpyrrolidin-3-amine] it was ≥ 6.00; in that of `Cn1cnc(S(=O)(=O)N2C[C@H](Nc3ccc4c(c3)CCC4)[C@@H](c3ccccc3)C2)c1` [Example 655, (3R,4S)-N-(2,3-dihydro-1H-inden-5-yl)-1-[(1-methyl-1H-imidazol-4-yl)sulfonyl]-4-phenylpyrrolidin-3-amine], ≥ 6.00. Turning to `Cn1cnc(S(=O)(=O)N2C[C@@H](Nc3ccccc3F)[C@H](c3ccc(F)cc3)C2)c1` (relative stereo) [Example 90, trans-N-(2-fluorophenyl)-4-(4-fluorophenyl)-1-[(1-methyl-1H-imidazol-4-yl)sulfonyl]pyrrolidin-3-amine], the pKi was ≥ 6.00. As to `Cn1cnc(S(=O)(=O)N2C[C@@H](Nc3ccc(F)c(C(F)(F)F)c3)[C@H](c3ccccc3Cl)C2)c1` (relative stereo) [Example 258, trans-4-(2-chlorophenyl)-N-[4-fluoro-3-(trifluoromethyl)phenyl]-1-[(1-methyl-1H-imidazol-4-yl)sulfonyl]pyrrolidin-3-amine], the pKi is ≥ 6.00.

In the case of `Cn1cnc(S(=O)(=O)N2C[C@@H](Nc3cc(Cl)cc(C#N)c3)[C@H](c3ccccc3)C2)c1` (relative stereo) [Example 80, 3-chloro-5-({trans-1-[(1-methyl-1H-imidazol-4-yl)sulfonyl]-4-phenylpyrrolidin-3-yl}amino)benzonitrile], the pKi was ≥ 6.00. As to `Cn1cnc(S(=O)(=O)N2C[C@H](Nc3cccc(S(C)(=O)=O)c3)[C@@H](c3ccccc3)C2)c1` [Example 422, (3R,4S)-1-[(1-methyl-1H-imidazol-4-yl)sulfonyl]-N-[3-(methylsulfonyl)phenyl]-4-phenylpyrrolidin-3-amine], the pKi is ≥ 6.00. Regarding `Cn1cnc(S(=O)(=O)N2C[C@H](NC(=O)Nc3ccccc3F)[C@@H](c3ccc(F)cc3)C2)c1` [Example 702, 1-(2-fluorophenyl)-3-{(3R,4S)-4-(4-fluorophenyl)-1-[(1-methyl-1H-imidazol-4-yl)sulfonyl]pyrrolidin-3-yl}urea], the pKi is ≥ 5.00. With `O=C(N[C@@H]1CN(S(=O)(=O)c2ccc(C(F)(F)F)cc2)C[C@H]1c1ccccc1)c1cccc(C(F)(F)F)c1Cl` (relative stereo) [Example 143, 2-chloro-N-[trans-4-phenyl-1-{[4-(trifluoromethyl)phenyl]sulfonyl}pyrrolidin-3-yl]-3-(trifluoromethyl)benzamide], the pKi is ≥ 5.00.

Staying with this test, now noted: radioligand binding, recombinant CHO cell membranes expressing human GlyT1c.
In the case of `Cc1cc(N[C@@H]2CN(S(=O)(=O)c3cn(C)cn3)C[C@H]2C2CCCO2)ncc1F` (relative stereo) [Example 851, 5-Fluoro-4-methyl-N-[trans-1-[(1-methyl-1H-imidazol-4-yl)sulfonyl]-4-(tetrahydrofuran-2-yl)pyrrolidin-3-yl]pyridin-2-amine], the pKi was ≥ 5.00.

Values taken from EP2970215B1, “PYRROLIDINE DERIVATIVES, PHARMACEUTICAL COMPOSITIONS CONTAINING THEM, AND THEIR USE IN THERAPY” (AbbVie Deutschland GmbH & Co. KG, priority 2013, dated 2014).
